According to ChEMBL document CHEMBL1201862, “PubChem BioAssay data set” (2004):
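Following 48 hours of exposure in 96-well plates, responses at five concentrations were used to interpolate endpoints linearly. The concentration for 50% growth inhibition is given as GI50.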 The source made the active and inactive calls. No stated cut-off is given here; in the data, active = GI50 up to about 1.1 µM and inactive = higher.

Experiments:
Test in all cases: growth of human tumour cells (NCI), 48 h
786-0 = system: 786-0
A498 = system: A498
A549 = system: A549
ACHN = system: ACHN
CAKI-1 = system: CAKI-1
CCRF-CEM = system: CCRF-CEM
COLO 205 = system: COLO 205
DU-145 = system: DU-145
EKVX = system: EKVX
HCC 2998 = system: HCC 2998
HCT-116 = system: HCT-116
HCT-15 = system: HCT-15
HL-60 = system: HL-60
HOP-62 = system: HOP-62
HOP-92 = system: HOP-92
HT-29 = system: HT-29
Hs-578T = system: Hs-578T
IGROV-1 = system: IGROV-1
K562 = system: K562
KM12 = system: KM12
LOX IMVI = system: LOX IMVI
M14 = system: M14
MCF7 = system: MCF7
MDA-MB-231 = system: MDA-MB-231
MDA-MB-435 = system: MDA-MB-435
MDA-N = system: MDA-N
MOLT-4 = system: MOLT-4
NCI-H226 = system: NCI-H226
NCI-H23 = system: NCI-H23
NCI-H460 = system: NCI-H460
NCI-H522 = system: NCI-H522
NCI/ADR-RES = system: NCI/ADR-RES
OVCAR-3 = system: OVCAR-3
OVCAR-5 = system: OVCAR-5
OVCAR-8 = system: OVCAR-8
PC-3 = system: PC-3
RPMI-8226 = system: RPMI-8226
RXF 393 = system: RXF 393
SF-268 = system: SF-268
SF-295 = system: SF-295
SF-539 = system: SF-539
SK-MEL-28 = system: SK-MEL-28
SK-MEL-2 = system: SK-MEL-2
SK-MEL-5 = system: SK-MEL-5
SK-OV-3 = system: SK-OV-3
SN12C = system: SN12C
SNB-19 = system: SNB-19
SNB-75 = system: SNB-75
SR = system: SR
SW-620 = system: SW-620
TK-10 = system: TK-10
U-251 = system: U-251
UACC-257 = system: UACC-257
UACC-62 = system: UACC-62
Malme-3M = system: Malme-3M
T47D = system: T47D
UO-31 = system: UO-31

**Q.** What does the source list for COc1cc([C@@H]2c3cc4c(cc3[C@@H](/N=C/c3ccc(C(=O)O[C@@H](C(=O)O[C@H]5C[C@@]6(O)[C@@H](OC(=O)c7ccccc7)[C@@H]7[C@]8(OC(C)=O)CO[C@@H]8C[C@H](O)[C@@]7(C)C(=O)[C@H](OC(C)=O)C(=C5C)C6(C)C)[C@@H](NC(=O)c5ccccc5)c5ccccc5)cc3)[C@H]3COC(=O)[C@H]23)OCO4)cc(OC)c1O?
**A.** GI50 (786-0): 74.8 nM (active); GI50 (A498): 133 nM (active); GI50 (A549): 26.6 nM (active); GI50 (ACHN): 5080 nM (inactive); GI50 (CAKI-1): 6310 nM (inactive); GI50 (CCRF-CEM): 11.8 nM (active); GI50 (COLO 205): 8.91 nM (active); GI50 (DU-145): 26.1 nM (active); GI50 (EKVX): 5930 nM (inactive); GI50 (HCC 2998): 18.9 nM (active); GI50 (HCT-116): 27 nM (active); GI50 (HCT-15): 13300 nM; GI50 (HL-60): 14.9 nM (active); GI50 (HOP-62): 246 nM (active); GI50 (HOP-92): > 36400 nM (inactive); GI50 (HT-29): 10.3 nM (active); GI50 (Hs-578T): 45.9 nM (active); GI50 (IGROV-1): 190 nM (active); GI50 (K562): < 5 nM (active); GI50 (KM12): 9.4 nM (active); GI50 (LOX IMVI): 110 nM (active); GI50 (M14): 22 nM (active); GI50 (MCF7): 12.8 nM (active); GI50 (MDA-MB-231): 116 nM (active); GI50 (MDA-MB-435): < 5 nM (active); GI50 (MDA-N): 5.89 nM (active); GI50 (MOLT-4): 18 nM (active); GI50 (NCI-H226): 75 nM (active); GI50 (NCI-H23): 869 nM (active); GI50 (NCI-H460): 9.29 nM (active); GI50 (NCI-H522): 13.8 nM (active); GI50 (NCI/ADR-RES): > 46000 nM (inactive); GI50 (OVCAR-3): 8.93 nM (active); GI50 (OVCAR-5): 31.2 nM (active); GI50 (OVCAR-8): 356 nM (active); GI50 (PC-3): 13.8 nM (active); GI50 (RPMI-8226): < 5 nM (active); GI50 (RXF 393): 33.3 nM (active); GI50 (SF-268): 70.3 nM (active); GI50 (SF-295): 171 nM (active); GI50 (SF-539): 14.1 nM (active); GI50 (SK-MEL-28): > 37100 nM (inactive); GI50 (SK-MEL-2): 33.5 nM (active); GI50 (SK-MEL-5): 15.4 nM (active); GI50 (SK-OV-3): 78.5 nM (active); GI50 (SN12C): 39.3 nM (active); GI50 (SNB-19): 1220 nM (inactive); GI50 (SNB-75): < 5 nM (active); GI50 (SR): < 5 nM (active); GI50 (SW-620): 29.7 nM (active); GI50 (TK-10): 14100 nM (inactive); GI50 (U-251): 15.4 nM (active); GI50 (UACC-257): 109 nM (active); GI50 (UACC-62): 81.5 nM (active)

**Q.** Which results are given for NS(=O)(=O)c1ccc(/C=C/c2ccc(O)c(O)c2)cc1?
**A.** GI50 (786-0): 34700 nM (inactive); GI50 (A498): 54300 nM (inactive); GI50 (COLO 205): 21200 nM (inactive); GI50 (DU-145): 68700 nM (inactive); GI50 (EKVX): 21200 nM (inactive); GI50 (HCC 2998): 18700 nM (inactive); GI50 (HCT-116): 25500 nM (inactive); GI50 (HOP-62): 47200 nM (inactive); GI50 (M14): 26500 nM (inactive); GI50 (MCF7): 20800 nM (inactive); GI50 (MDA-MB-231): 19600 nM (inactive); GI50 (MDA-N): 18300 nM (inactive); GI50 (Malme-3M): 35300 nM (inactive); GI50 (NCI-H460): 27300 nM (inactive); GI50 (NCI/ADR-RES): 23100 nM (inactive); GI50 (OVCAR-3): 31600 nM (inactive); GI50 (OVCAR-5): 31600 nM (inactive); GI50 (PC-3): 19100 nM (inactive); GI50 (RXF 393): 69300 nM (inactive); GI50 (SF-295): 29800 nM (inactive); GI50 (SK-MEL-28): 23200 nM (inactive); GI50 (SK-MEL-2): 22500 nM (inactive); GI50 (SK-MEL-5): 10800 nM (inactive); GI50 (SK-OV-3): 17300 nM (inactive); GI50 (SN12C): 18700 nM (inactive); GI50 (SNB-19): 34400 nM (inactive); GI50 (SNB-75): 20400 nM (inactive); GI50 (SW-620): 22000 nM (inactive); GI50 (T47D): 14500 nM (inactive); GI50 (TK-10): 60700 nM (inactive); GI50 (UACC-257): 61500 nM (inactive); GI50 (UO-31): 12300 nM (inactive)
